Experimental data taken from the NIST ThermoML archive (doi:10.1021/je700621d).

Legend:
[1] = for mass density: Liquid, Vibrating tube method; for surface tension liquid-gas: Pendant drop shape
[2] = xn = mol fraction of the nth substance listed; conditions: 298 K; for surface tension liquid-gas: Pendant drop shape; for mass density: 101 kPa, Liquid, Vibrating tube method

CCCC[N+](C)(C)C.O=S(=O)([N-]S(=O)(=O)C(F)(F)F)C(F)(F)F [butyltrimethylammonium bis(trifluoromethylsulfonyl)imide]
[1], 101.33 kPa
Conditions | mass density [kg/m3]
278.15 K | 1412.3
288.15 K | 1403
298.15 K | 1394
308.15 K | 1385
318.15 K | 1376.1
328.15 K | 1367.3

[1]
Conditions | surface tension liquid-gas [mN/m]
278.75 K | 33.31
288.15 K | 33.04
298.15 K | 32.46
308.15 K | 32
318.15 K | 31.21
328.15 K | 30.64

CCCCO [butan-1-ol] + CCCC[n+]1ccn(C)c1.O=S(=O)([N-]S(=O)(=O)C(F)(F)F)C(F)(F)F
[2], x2 = 0
Conditions | mass density [kg/m3] | surface tension liquid-gas [mN/m]
– | 805.3 | 23.96

CCOS(=O)(=O)[O-].CCn1cc[n+](C)c1 [1-ethyl-3-methylimidazolium ethyl sulfate]
[1], 101.33 kPa
Conditions | mass density [kg/m3]
278.15 K | 1255.1
288.15 K | 1248.1
298.15 K | 1241.1
308.15 K | 1234.2
318.15 K | 1227.3
328.15 K | 1220.6

[1]
Conditions | surface tension liquid-gas [mN/m]
278.75 K | 46.7
288.15 K | 46.04
298.15 K | 45.43
308.15 K | 44.72
318.15 K | 43.74
328.15 K | 43.37

CCCCO [butan-1-ol]
Conditions | surface tension liquid-gas [mN/m]
[1], 298 K | 23.96

Conditions | mass density [kg/m3]
[1], 298 K, 101.3 kPa | 805.3

CCCCCCCC[N+](C)(CCCCCCCC)CCCCCCCC.O=S(=O)([N-]S(=O)(=O)C(F)(F)F)C(F)(F)F
[1], 101.33 kPa
Conditions | mass density [kg/m3]
278.15 K | 1119.8
288.15 K | 1112.2
298.15 K | 1104.6
308.15 K | 1097.2
318.15 K | 1089.6
328.15 K | 1082.1

[1]
Conditions | surface tension liquid-gas [mN/m]
278.75 K | 29.65
288.15 K | 28.92
298.15 K | 27.93
308.15 K | 27.02
318.15 K | 26.56
328.15 K | 26.03

CCCO [propan-1-ol] + CCCC[n+]1ccn(C)c1.O=S(=O)([N-]S(=O)(=O)C(F)(F)F)C(F)(F)F
[2], x2 = 0
Conditions | mass density [kg/m3] | surface tension liquid-gas [mN/m]
– | 799 | 23.34

CCCCCCCCOS(=O)(=O)[O-].CCCCn1cc[n+](C)c1 [1-butyl-3-methylimidazolium octyl sulfate]
[1], 101.33 kPa
Conditions | mass density [kg/m3]
278.15 K | 1077.3
288.15 K | 1070.4
298.15 K | 1063.8
308.15 K | 1057.1
318.15 K | 1050.8
328.15 K | 1044.3

[1]
Conditions | surface tension liquid-gas [mN/m]
278.75 K | 28.08
288.15 K | 27.29
298.15 K | 26.71
308.15 K | 26.27
318.15 K | 25.72
328.15 K | 24.99

CCn1cc[n+](C)c1.O=S(=O)([N-]S(=O)(=O)C(F)(F)F)C(F)(F)F
[1], 101.33 kPa
Conditions | mass density [kg/m3]
278.15 K | 1539.1
288.15 K | 1528.9
298.15 K | 1518.7
308.15 K | 1508.7
318.15 K | 1498.6
328.15 K | 1488.7

[1]
Conditions | surface tension liquid-gas [mN/m]
278.75 K | 37.31
288.15 K | 36.58
298.15 K | 35.71
308.15 K | 35.17
318.15 K | 34.68
328.15 K | 34.25

CCCC[n+]1ccn(C)c1.O=S(=O)([N-]S(=O)(=O)C(F)(F)F)C(F)(F)F + CCCO
[2]
Conditions | mass density [kg/m3] | surface tension liquid-gas [mN/m]
x1 = 0.035 | 878.2 | 23.6
x1 = 0.131 | 1036.2 | 24.16
x1 = 0.202 | 1116.5 | 24.73
x1 = 0.296 | 1194.1 | 25.77
x1 = 0.373 | 1243.5 | 26.47
x1 = 0.517 | 1311.8 | 28.6
x1 = 0.664 | 1361.9 | 29.89
x1 = 0.685 | 1368 | 30.54
x1 = 0.884 | 1422 | 32.49
x1 = 1 | 1436.4 | 32.8

CCCC[n+]1ccn(C)c1.O=S(=O)([N-]S(=O)(=O)C(F)(F)F)C(F)(F)F
[1], 101.33 kPa
Conditions | mass density [kg/m3]
278.15 K | 1456.1
288.15 K | 1446.2
298 K | 1436.4
298.15 K | 1436.6
308.15 K | 1427
318.15 K | 1417.4
328.15 K | 1407.9

[1]
Conditions | surface tension liquid-gas [mN/m]
278.75 K | 33.8
288.15 K | 33.37
298 K | 32.8
298.15 K | 32.8
308.15 K | 32.32
318.15 K | 31.89
328.15 K | 31.28

CCCC[n+]1ccn(C)c1.O=S(=O)([N-]S(=O)(=O)C(F)(F)F)C(F)(F)F + CCCCO
[2]
Conditions | mass density [kg/m3] | surface tension liquid-gas [mN/m]
x1 = 0.0941 | 962.2 | 23.98
x1 = 0.2025 | 1087.1 | 23.88
x1 = 0.2045 | 1089 | 23.8
x1 = 0.306 | 1172.6 | 24.16
x1 = 0.3064 | 1172.5 | 24.25
x1 = 0.3964 | 1230.5 | 25.17
x1 = 0.5002 | 1283.6 | 26.79
x1 = 0.5977 | 1323.5 | 28.32
x1 = 0.6848 | 1354.8 | 29.56
x1 = 0.8016 | 1388.6 | 30.96
x1 = 0.8986 | 1413.4 | 31.94
x1 = 1 | 1436.4 | 32.8

CCCO [propan-1-ol]
Conditions | surface tension liquid-gas [mN/m]
[1], 298 K | 23.34

Conditions | mass density [kg/m3]
[1], 298 K, 101.3 kPa | 799
